# In patent publication US20160289449A1, “PROTEIN-BASED BIOPLASTICS AND METHODS OF USE” (University of Georgia Research Foundation, Inc., priority 2015, published 2016):
# How the values were obtained:
# [1] = system: bacteria; details: cited from earlier work
# [2] = system: Gram (+) specie Bacillius subtilis; experiment: Drug elution and zone of inhibition study (disk susceptibility, M02-A11); format: cell-based, Bacillus subtilis
# Protocol: (§1) After preparation, the samples were then cut into disk-sized plastics that were applied to the surface of Mueller-Hinton agar dishes that had been already inoculated with either Gram (+) specie Bacillius subtilis or the Gram (−) specie Escherichia coli at a concentration of 1-5×10^8 cells/mL. After application, the plates were then incubated for five days 30° C., during which the zones of inhibition were measured every 24 hours to determine the change of diameter of the inhibition zone size over time. Samples were run in triplicate (n=3) for each plastic type-additive combination (as well as the LDPE plastic control samples) in order to ensure precision.
# (§2) To compare the ability of plastics to elute drug and to determine the effect of the addition of LDPE into plastics, statistical analyses were performed by fitting a regression model.
# [3] = system: Gram (−) specie Escherichia coli; experiment: as above; format: cell-based
# Protocol: as §1, §2
# [4] = plastics with 15% of the additive, range over plastic types
# [5] = plastics with the additive imbedded
compound,measurement,setting,value
OCC(O)CO [glycerol],concentration required for bacteriocidial properties,[1],at least 28%
O=C([O-])c1ccccc1.[Na+] [sodium benzoate],zone of inhibition at decreased amount of food preservative (in words),[2]; 10% and 5% additive in the plastic,unable to produce a zone of inhibition
O=NO [sodium nitrite],inhibition zone after 5 days,[3]; [4],0 mm
same,zones of inhibition on inoculated petri dishes (in words),[3]; [5],did not generate any zones of inhibition
same,inhibition zone after 5 days,[2]; [4],0 mm
same,zones of inhibition on inoculated petri dishes (in words),[2]; [5],did not generate any zones of inhibition
